Patent US20240327364A1, “THERAPEUTIC TARGETING OF GPR68 TO INDUCE FERROPTOSIS” (University Of Maryland, Baltimore, priority 2023, published 2024)
Where two headings read alike, the source gives them in different places.

Tests used:
MEK5 = target: T1, MEK5 (Homo sapiens, UniProt Q13163); assay: KinomeScan; assay type: binding; conditions: read-out: % Control
T1 construct: purchased DiscoveRx (Fremont, CA)

sst3 = target: T2, sst3 (Homo sapiens, UniProt P32745); assay: GPCR Profiler; assay type: cell-based
T2 construct: host or cells: Chem-1 cells with Gα15
T2 sequence (P32745 whole entry, species assumed): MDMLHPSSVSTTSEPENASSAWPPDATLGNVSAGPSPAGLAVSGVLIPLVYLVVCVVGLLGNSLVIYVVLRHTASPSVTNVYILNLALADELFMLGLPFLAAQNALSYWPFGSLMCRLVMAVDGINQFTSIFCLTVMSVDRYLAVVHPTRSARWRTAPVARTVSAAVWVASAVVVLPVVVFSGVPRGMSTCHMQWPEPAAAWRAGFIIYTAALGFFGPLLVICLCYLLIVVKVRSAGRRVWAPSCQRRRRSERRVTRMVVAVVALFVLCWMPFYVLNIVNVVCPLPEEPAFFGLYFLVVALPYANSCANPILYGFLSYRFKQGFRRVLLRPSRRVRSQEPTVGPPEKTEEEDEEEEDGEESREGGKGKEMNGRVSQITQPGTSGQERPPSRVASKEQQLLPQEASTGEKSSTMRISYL

IRAK1 = target: T3, IRAK1 (Homo sapiens, UniProt P51617); assay: KinomeScan; assay type: binding; conditions: read-out: % Control
T3 construct: purchased DiscoveRx (Fremont, CA)

C3aR = target: T4, C3aR (Homo sapiens, UniProt Q16581); assay: GPCR Profiler; assay type: cell-based
T4 construct: host or cells: Chem-1 cells with promiscuous Gα15
T4 sequence (Q16581 whole entry, species assumed): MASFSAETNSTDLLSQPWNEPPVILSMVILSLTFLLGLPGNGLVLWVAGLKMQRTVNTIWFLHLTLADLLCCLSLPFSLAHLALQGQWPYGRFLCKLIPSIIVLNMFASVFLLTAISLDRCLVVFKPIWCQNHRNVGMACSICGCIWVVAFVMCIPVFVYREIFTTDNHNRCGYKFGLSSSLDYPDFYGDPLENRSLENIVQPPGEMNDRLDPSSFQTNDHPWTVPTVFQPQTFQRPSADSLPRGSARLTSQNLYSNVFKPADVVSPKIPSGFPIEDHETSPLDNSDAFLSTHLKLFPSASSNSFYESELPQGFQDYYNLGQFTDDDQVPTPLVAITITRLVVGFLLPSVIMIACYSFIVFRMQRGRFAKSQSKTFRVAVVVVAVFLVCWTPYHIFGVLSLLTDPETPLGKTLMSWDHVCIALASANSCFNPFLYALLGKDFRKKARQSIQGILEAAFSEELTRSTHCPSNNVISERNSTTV

TGFBR1 = target: T5, TGFBR1 (Homo sapiens, UniProt P36897); assay: KinomeScan; assay type: binding; conditions: read-out: % Control
T5 construct: purchased DiscoveRx (Fremont, CA)
T5 sequence (P36897 34-503): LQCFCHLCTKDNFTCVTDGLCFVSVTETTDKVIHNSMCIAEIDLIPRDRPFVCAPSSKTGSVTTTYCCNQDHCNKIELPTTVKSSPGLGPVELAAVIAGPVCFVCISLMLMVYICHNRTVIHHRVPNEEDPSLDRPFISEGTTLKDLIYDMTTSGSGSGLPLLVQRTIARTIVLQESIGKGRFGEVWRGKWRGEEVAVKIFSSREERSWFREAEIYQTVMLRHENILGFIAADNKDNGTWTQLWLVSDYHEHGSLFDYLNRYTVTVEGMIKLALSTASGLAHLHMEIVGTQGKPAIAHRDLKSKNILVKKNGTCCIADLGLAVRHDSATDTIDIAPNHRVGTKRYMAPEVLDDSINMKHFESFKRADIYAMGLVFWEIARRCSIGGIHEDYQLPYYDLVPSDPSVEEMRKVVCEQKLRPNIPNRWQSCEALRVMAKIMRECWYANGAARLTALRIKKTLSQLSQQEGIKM

CSNK1A1L = CSNK1A1L (Homo sapiens, UniProt Q8N752); assay: KinomeScan; assay type: binding; conditions: read-out: % Control
CSNK1A1L, sequence (Q8N752 whole entry): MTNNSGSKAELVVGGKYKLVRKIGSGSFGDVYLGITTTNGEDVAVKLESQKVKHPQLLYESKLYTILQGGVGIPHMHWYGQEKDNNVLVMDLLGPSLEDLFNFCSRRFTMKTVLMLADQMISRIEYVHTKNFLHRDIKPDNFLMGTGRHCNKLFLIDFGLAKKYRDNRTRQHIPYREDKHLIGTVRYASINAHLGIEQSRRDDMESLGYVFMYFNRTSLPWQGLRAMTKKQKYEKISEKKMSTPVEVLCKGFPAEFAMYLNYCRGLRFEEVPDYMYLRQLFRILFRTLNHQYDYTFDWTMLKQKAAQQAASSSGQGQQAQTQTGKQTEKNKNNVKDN

TRKA = target: T6, TRKA (Homo sapiens, UniProt P04629); assay: KinomeScan; assay type: binding; conditions: read-out: % Control
T6 construct: purchased DiscoveRx (Fremont, CA)

A3 = target: T7, A3 (Homo sapiens, UniProt P0DMS8); assay: GPCR Profiler; assay type: cell-based
T7 construct: host or cells: Chem-1 cells with promiscuous Gα15
T7 sequence (P0DMS8 whole entry): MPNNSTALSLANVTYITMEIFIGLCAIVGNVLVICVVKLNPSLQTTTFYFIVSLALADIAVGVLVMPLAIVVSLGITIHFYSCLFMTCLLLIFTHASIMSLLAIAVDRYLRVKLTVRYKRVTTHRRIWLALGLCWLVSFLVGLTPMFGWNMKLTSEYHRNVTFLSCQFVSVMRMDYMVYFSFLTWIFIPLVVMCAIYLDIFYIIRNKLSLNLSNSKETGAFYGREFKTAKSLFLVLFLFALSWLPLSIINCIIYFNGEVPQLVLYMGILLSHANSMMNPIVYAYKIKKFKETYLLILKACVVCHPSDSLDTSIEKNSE

[1] = target: T8, JAK1(JH2domain-pseudokinase) (Homo sapiens, UniProt P23458); assay: KinomeScan; assay type: binding; conditions: read-out: % Control
T8 construct: JAK1(JH2domain-pseudokinase); purchased DiscoveRx (Fremont, CA)
T8 sequence (P23458 583-855 limits assumed): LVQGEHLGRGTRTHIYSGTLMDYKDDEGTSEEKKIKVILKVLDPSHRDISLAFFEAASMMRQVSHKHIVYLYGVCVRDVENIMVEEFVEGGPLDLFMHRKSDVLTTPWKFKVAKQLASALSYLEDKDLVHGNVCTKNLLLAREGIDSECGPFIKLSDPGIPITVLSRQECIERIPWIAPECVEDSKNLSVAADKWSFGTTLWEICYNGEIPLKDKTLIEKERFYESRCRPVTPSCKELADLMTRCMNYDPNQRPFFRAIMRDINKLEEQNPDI

BRSK2 = target: T9, BRSK2 (Homo sapiens, UniProt Q8IWQ3); assay: KinomeScan; assay type: binding; conditions: read-out: % Control
T9 construct: purchased DiscoveRx (KinomeScan service)
T9 sequence (Q8IWQ3 whole entry): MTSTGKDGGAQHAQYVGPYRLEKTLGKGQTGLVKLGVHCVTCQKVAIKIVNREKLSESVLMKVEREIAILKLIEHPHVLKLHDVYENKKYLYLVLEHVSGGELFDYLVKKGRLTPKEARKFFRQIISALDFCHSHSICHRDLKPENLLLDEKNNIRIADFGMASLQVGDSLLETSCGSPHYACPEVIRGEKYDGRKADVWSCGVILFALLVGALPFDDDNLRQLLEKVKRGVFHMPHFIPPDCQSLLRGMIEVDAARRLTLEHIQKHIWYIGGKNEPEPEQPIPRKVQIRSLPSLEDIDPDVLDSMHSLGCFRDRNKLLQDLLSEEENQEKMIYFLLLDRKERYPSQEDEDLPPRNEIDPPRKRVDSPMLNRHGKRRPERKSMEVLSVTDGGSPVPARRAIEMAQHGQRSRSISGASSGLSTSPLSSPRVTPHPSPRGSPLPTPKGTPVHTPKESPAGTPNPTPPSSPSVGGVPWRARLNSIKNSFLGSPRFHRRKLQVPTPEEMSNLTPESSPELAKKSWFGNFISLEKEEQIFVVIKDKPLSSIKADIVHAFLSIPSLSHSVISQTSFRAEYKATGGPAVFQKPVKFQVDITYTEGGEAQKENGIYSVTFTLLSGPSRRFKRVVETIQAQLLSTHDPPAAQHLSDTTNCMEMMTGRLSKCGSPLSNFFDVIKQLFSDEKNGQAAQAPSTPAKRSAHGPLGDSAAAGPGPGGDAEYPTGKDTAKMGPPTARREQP

TBK1 = target: T10, TBK1 (Homo sapiens, UniProt Q9UHD2); assay: KinomeScan; assay type: binding; conditions: read-out: % Control
T10 construct: purchased DiscoveRx (Fremont, CA)

TNNI3K = target: T11, TNNI3K (Homo sapiens, UniProt Q59H18); assay: KinomeScan; assay type: binding; conditions: read-out: % Control
T11 construct: purchased DiscoveRx (Fremont, CA)

MRCKA = target: T12, MRCKA (Homo sapiens, UniProt Q5VT25); assay: KinomeScan; assay type: binding; conditions: read-out: % Control
T12 construct: purchased DiscoveRx

EP4 = target: T13, EP4 (Homo sapiens, UniProt P35408); assay: GPCR Profiler; assay type: cell-based
T13 construct: host or cells: Chem-1 cells expressing Gα15
T13 sequence (P35408 whole entry): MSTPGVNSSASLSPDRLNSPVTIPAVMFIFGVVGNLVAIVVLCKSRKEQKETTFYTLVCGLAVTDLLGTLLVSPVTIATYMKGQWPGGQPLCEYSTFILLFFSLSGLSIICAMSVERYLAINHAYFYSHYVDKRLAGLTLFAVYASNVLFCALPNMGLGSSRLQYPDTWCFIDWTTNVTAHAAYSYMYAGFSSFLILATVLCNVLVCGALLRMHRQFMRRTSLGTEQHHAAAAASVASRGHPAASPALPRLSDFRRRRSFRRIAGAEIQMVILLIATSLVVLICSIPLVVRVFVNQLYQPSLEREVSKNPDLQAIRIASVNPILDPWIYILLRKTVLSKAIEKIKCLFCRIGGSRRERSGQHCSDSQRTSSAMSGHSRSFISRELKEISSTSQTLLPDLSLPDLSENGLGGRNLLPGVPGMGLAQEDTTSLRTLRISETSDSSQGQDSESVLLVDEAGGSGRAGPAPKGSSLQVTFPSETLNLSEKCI

Secretin = target: T14, Secretin (Homo sapiens, UniProt P47872); assay: GPCR Profiler; assay type: cell-based
T14 construct: host or cells: Chem-1 cells with Gα15
T14 sequence (P47872 23-440): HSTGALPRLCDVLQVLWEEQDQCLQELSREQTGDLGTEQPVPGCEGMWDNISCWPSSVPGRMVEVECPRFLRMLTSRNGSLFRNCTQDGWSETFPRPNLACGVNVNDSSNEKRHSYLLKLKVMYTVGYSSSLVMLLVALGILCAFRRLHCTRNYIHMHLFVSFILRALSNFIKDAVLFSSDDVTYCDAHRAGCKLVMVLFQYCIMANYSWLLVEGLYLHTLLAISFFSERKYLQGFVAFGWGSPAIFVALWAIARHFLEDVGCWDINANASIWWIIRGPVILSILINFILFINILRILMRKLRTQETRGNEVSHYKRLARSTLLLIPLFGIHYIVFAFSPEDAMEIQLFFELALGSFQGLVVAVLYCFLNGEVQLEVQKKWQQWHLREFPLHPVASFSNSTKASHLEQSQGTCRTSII

S1P1 = target: T15, S1P1 (Homo sapiens, UniProt P21453); assay: GPCR Profiler; assay type: cell-based
T15 construct: host or cells: Chem-1 cells with Gα15
T15 sequence (P21453 whole entry, species assumed): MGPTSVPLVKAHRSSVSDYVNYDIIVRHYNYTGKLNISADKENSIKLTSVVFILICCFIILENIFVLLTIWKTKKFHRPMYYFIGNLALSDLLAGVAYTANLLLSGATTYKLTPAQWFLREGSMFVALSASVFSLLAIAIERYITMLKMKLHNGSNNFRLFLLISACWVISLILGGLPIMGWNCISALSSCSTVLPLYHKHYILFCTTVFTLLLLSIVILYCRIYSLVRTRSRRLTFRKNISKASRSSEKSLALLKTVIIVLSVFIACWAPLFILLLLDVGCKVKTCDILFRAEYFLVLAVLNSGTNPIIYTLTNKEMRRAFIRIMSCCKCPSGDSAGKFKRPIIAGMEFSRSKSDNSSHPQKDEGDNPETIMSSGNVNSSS

HeLa = assay: Cell Titer-Glo viability, Cervical cancer; assay type: cell-based
Experimental: (§1) OGM2 kills wide variety of cancer cell types. Cell sensitivity can be classified in to Very Sensitive (LC50<2 μM), Sensitive (LC50=2 to 10 μM), Mildly Sensitive (LC50>10 μM), and Refractory (no killing at 10 μM). The listed established cell were incubated with OGM2 at 2 μM or 10 μM for 72 hours under standard cell culture conditions, and relative cell number was assessed using Cell Titer-Glo Luminescent Cell Viability Assay (Promega™) following the manufacturer's instructions. Luminescence was determined using a Cytation 5 reader and Gen5 software package (BioTek™).
(§2) Cancer cells, which are very sensitive to killing by OGM2 (LCs <2 μM), with reported mRNA expression of GPR68 and the related proton sensing receptor GPR4. LC50's (concentrations causing 50% lethality) were determined using CellTiter-Glo (Promega™, G7570). Cells were plated in 12-well plates (CELLTREAT Scientific Products, 229112) in 1 ml of DMEM with high glucose, GlutaMAX, HEPES, or RPMI 1640 with Penicillin-Streptomycin (ThermoFisher™, 10564029, 11875119 and 15140122) and 10% FBS. Cells were incubated overnight at 37° C. in 5% CO2. Then 1 mL of fresh media was added with DMSO, OGM, or positive control (Erastin; APExBIO Technology, LLC, B1524) and cells incubated for 3 days. On the third day, all media was removed, cells were rinsed with 1×PBS, PBS was removed, and 200 μL of 1× Passive Lysis Buffer (Promega™, E1941) was added to each well. […]. Subsequently, 20 μL of lysate was added to 100 μL CellTiter-Glo™ reagent on a LUMITRAC 200 plate (Greiner™ bio-one, 82050-726). Plates were briefly spun down and read on a GloMax-Multi Detection System (Promega™).
(§3) The cells listed in the tables above were incubated with OGM2 at 2 μM or 10 μM for 72 hours under standard cell culture conditions, and relative cell number was assessed using Cell Titer-Glo Luminescent Cell Viability Assay (Promega™) following the manufacturer's instructions. Luminescence was determined using a Cytation 5 reader and Gen5 software package (BioTek™). RNA expression of GPR68 and GPR4 in the corresponding cancer cell lines are listed, according to the publicly available The Human Protein Atlas version 22.0 and Ensembl version 103.38 (see proteinatlas.org). The consensus normalized expression value (“nTPM”=normalize transcript per million) was calculated as the maximum nTPM value for each gene in the two data sources.

WM-115 = assay: Cell Titer-Glo viability, Melanoma; assay type: cell-based
Experimental: as §1, §2, §3

Daoy = assay: Cell Titer-Glo viability, Medulloblastoma; assay type: cell-based; conditions: 72 hours
Experimental: as §1
as §2, with “Subsequently, 20 μL of lysate was added to 100 μL CellTiter-Glo™ reagent on a LUMITRAC 200 plate (Greiner™ bio-one, 82050-726).” left out
The cells listed in the tables above were incubated with OGM2 at 2 μM or 10 μM for 72 hours under standard cell culture conditions, and relative cell number was assessed using Cell Titer-Glo Luminescent Cell Viability Assay (Promega™) following the manufacturer's instructions. Luminescence was determined using a Cytation 5 reader and Gen5 software package (BioTek™). […] The consensus normalized expression value (“nTPM”=normalize transcript per million) was calculated as the maximum nTPM value for each gene in the two data sources.

NCI-H460 = assay: Cell Titer-Glo viability, Lung cancer, Large cell; assay type: cell-based
Experimental: as §1, §2, §3

T1 sequence (Q13163 whole entry): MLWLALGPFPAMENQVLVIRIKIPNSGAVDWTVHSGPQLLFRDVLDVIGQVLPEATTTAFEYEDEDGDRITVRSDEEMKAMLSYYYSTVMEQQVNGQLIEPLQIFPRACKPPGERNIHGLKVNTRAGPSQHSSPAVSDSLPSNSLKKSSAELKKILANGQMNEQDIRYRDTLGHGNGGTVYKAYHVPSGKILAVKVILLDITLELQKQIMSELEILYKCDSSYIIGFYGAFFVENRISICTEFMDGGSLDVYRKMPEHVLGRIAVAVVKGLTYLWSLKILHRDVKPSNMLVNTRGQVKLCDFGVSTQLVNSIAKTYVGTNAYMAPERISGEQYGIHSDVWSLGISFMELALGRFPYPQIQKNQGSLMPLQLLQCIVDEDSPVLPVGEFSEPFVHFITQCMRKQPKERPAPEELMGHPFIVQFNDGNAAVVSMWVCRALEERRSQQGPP

**Q.** What does the source list for `CCc1ccc2c(c1)C1(NN=C(c3cccc4ccccc34)S1)C(=O)N2` (centres unmarked) [OGM1, 5-ethyl-5′-naphthalen-1-ylspiro[1H-indole-3,2′-3H-1,3,4-thiadiazole]-2-one]?
**A.** remaining binding at 10 µM (MEK5): 92%; Antagonism (sst3; 10 uM): 0; Agonism (sst3; 12.5 uM): 0; remaining binding at 10 µM (IRAK1): 100%; Antagonism (C3aR; 10 uM): 5.4; Agonism (C3aR; 12.5 uM): 0.2; remaining binding at 10 µM (TGFBR1): 100%; remaining binding at 10 µM (CSNK1A1L): 100%; remaining binding at 10 µM (TRKA): 81%; Antagonism (A3; 10 uM): 3.2; Agonism (A3; 12.5 uM): −0.4; remaining binding at 10 µM [1]: 100%; remaining binding at 10 µM (BRSK2): 100%; remaining binding at 10 µM (TBK1): 90%; remaining binding at 10 µM (TNNI3K): 100%; remaining binding at 10 µM (MRCKA): 78%; Antagonism (EP4; 10 uM): −17; Agonism (EP4; 12.5 uM): 0.9; Antagonism (Secretin; 10 uM): 1.7; Agonism (Secretin; 12.5 uM): 0.9; Antagonism (S1P1; 10 uM): 3.1; Agonism (S1P1; 12.5 uM): −0.4

**Q.** For `CCc1ccc2c(c1)C1(NN=C(c3ccccc3)S1)C(=O)N2` (centres unmarked) [OGM2], which Class (HeLa) is on record?
**A.** The Class was “Mildly”.

**Q.** What about the “% Survival 2 μM OGM” value (HeLa; 72 hours) of the same compound?
**A.** The value was 91.5%.

**Q.** And the “% Survival 10 μM OGM” value (HeLa; 72 hours)?
**A.** The value was 68.0%.

**Q.** And the CC50 (HeLa; Homo sapiens, HeLa, 72 hours, read-out: LC50 (the source's name))?
**A.** The CC50 was over 10 µM.

**Q.** And the Class (HeLa; Table 13)?
**A.** The Class was “Low”.

**Q.** What about the Class (WM-115) of the same compound?
**A.** The Class was “Sensitive (Sensitive (LC50=2 to 10 μM))”.

**Q.** And the “% Survival 2 μM OGM” value (WM-115; 72 hours)?
**A.** Its value is 92.9%.

**Q.** What about the “% Survival 10 μM OGM” value (WM-115; 72 hours) of the same compound?
**A.** The value was 40.7%.

**Q.** What about the CC50 (WM-115; Homo sapiens, WM-115, 72 hours, read-out: LC50 (the source's name)) of the same compound?
**A.** Its CC50 is 2 to 10 µM.

**Q.** What about the “% Survival 2 μM OGM” value (Daoy) of the same compound?
**A.** Its value is 9.0%.

**Q.** And the “% Survival 10 μM OGM” value (Daoy)?
**A.** The value was 10.5%.

**Q.** What about the CC50 (Daoy; Homo sapiens, Daoy, read-out: LC50 (the source's name)) of the same compound?
**A.** Its CC50 is under 2 µM.

**Q.** And the Class (NCI-H460)?
**A.** Its Class is “Sensitive (Sensitive (LC50=2 to 10 μM))”.

**Q.** What about the “% Survival 2 μM OGM” value (NCI-H460; 72 hours) of the same compound?
**A.** The value was 51.7%.

**Q.** And the “% Survival 10 μM OGM” value (NCI-H460; 72 hours)?
**A.** The value was 26.5%.

**Q.** And the CC50 (NCI-H460; Homo sapiens, NCI-H460, 72 hours, read-out: LC50 (the source's name))?
**A.** Its CC50 is 2 to 10 µM.
